According to ChEMBL document CHEMBL4831516, “Development of Membrane-Active Honokiol/Magnolol Amphiphiles as Potent Antibacterial Agents against Methicillin-Resistant Staphylococcus aureus (MRSA)” (J Med Chem, 2021):
≈ marks a conversion by molar mass, not a printed value.

Key:
[1] = tested on: Streptococcus mutans; test: Antibacterial activity against Streptococcus mutans; format: functional
[2] = tested on: Staphylococcus aureus; test: Antibacterial activity against Staphylococcus aureus ATCC29213 assessed as inhibition of visible growth incubated for 16 to 18 hrs by CLSI method; format: functional; conditions: time 16-18 hrs, read-out: MIC100
[3] = tested on: Enterococcus faecalis; test: Antibacterial activity against Enterococcus faecalis ATCC29212 assessed as inhibition of visible growth incubated for 16 to 18 hrs by CLSI method; format: functional; conditions: time 16-18 hrs, read-out: MIC100
[4] = tested on: Bacillus subtilis; test: Antibacterial activity against Bacillus subtilis assessed as inhibition of visible growth incubated for 16 to 18 hrs by CLSI method; format: functional; conditions: time 16-18 hrs, read-out: MIC100
[5] = tested on: Micrococcus luteus; test: Antibacterial activity against Micrococcus luteus assessed as inhibition of visible growth incubated for 16 to 18 hrs by CLSI method; format: functional; conditions: time 16-18 hrs, read-out: MIC100
[6] = tested on: Escherichia coli; test: Antibacterial activity against Escherichia coli ATCC25922 assessed as inhibition of visible growth incubated for 16 to 18 hrs by CLSI method; format: functional; conditions: time 16-18 hrs, read-out: MIC100
[7] = tested on: Stenotrophomonas maltophilia; test: Antibacterial activity against Stenotrophomonas maltophilia assessed as inhibition of visible growth incubated for 16 to 18 hrs by CLSI method; format: functional; conditions: time 16-18 hrs, read-out: MIC100
[8] = tested on: Salmonella enterica; test: Antibacterial activity against Salmonella enterica 349812 assessed as inhibition of visible growth incubated for 16 to 18 hrs by CLSI method; format: functional; conditions: time 16-18 hrs, read-out: MIC100
[9] = tested on: Salmonella enterica; test: Antibacterial activity against Salmonella enterica 8389 assessed as inhibition of visible growth incubated for 16 to 18 hrs by CLSI method; format: functional; conditions: time 16-18 hrs, read-out: MIC100
[10] = Hemolytic activity in sheep RBC assessed as hemolysis incubated for 1 hr; format: ADME, cell-based, Ovis aries, Erythrocyte; conditions: sheep red blood cells (erythrocytes)
[11] = Selectivity index, HC50 for hemolytic activity in sheep RBC to MIC for antibacterial activity against Staphylococcus aureus ATCC29213; format: toxicity; conditions: sheep red blood cells (erythrocytes), read-out: Selectivity Index
[12] = tested on: Staphylococcus aureus; test: Antibacterial activity against methicillin-resistant Staphylococcus aureus clinical isolate M-11 assessed as inhibition of visible growth incubated for 16 to 18 hrs by CLSI method; format: functional; conditions: time 16-18 hrs, read-out: MIC100
[13] = tested on: Staphylococcus aureus; test: Antibacterial activity against methicillin-resistant Staphylococcus aureus clinical isolate M-12 assessed as inhibition of visible growth incubated for 16 to 18 hrs by CLSI method; format: functional; conditions: time 16-18 hrs, read-out: MIC100
[14] = tested on: Staphylococcus aureus; test: Antibacterial activity against methicillin-resistant Staphylococcus aureus clinical isolate M-13 assessed as inhibition of visible growth incubated for 16 to 18 hrs by CLSI method; format: functional; conditions: time 16-18 hrs, read-out: MIC100
[15] = tested on: Staphylococcus aureus; test: Antibacterial activity against methicillin-resistant Staphylococcus aureus clinical isolate M-14 assessed as inhibition of visible growth incubated for 16 to 18 hrs by CLSI method; format: functional; conditions: time 16-18 hrs, read-out: MIC100
[16] = tested on: Staphylococcus aureus; test: Antibacterial activity against methicillin-resistant Staphylococcus aureus clinical isolate M-15 assessed as inhibition of visible growth incubated for 16 to 18 hrs by CLSI method; format: functional; conditions: time 16-18 hrs, read-out: MIC100
[17] = tested on: Staphylococcus aureus; test: Antibacterial activity against methicillin-resistant Staphylococcus aureus clinical isolate M-16 assessed as inhibition of visible growth incubated for 16 to 18 hrs by CLSI method; format: functional; conditions: time 16-18 hrs, read-out: MIC100
[18] = tested on: Staphylococcus aureus; test: Antibacterial activity against methicillin-resistant Staphylococcus aureus clinical isolate M-17 assessed as inhibition of visible growth incubated for 16 to 18 hrs by CLSI method; format: functional; conditions: time 16-18 hrs, read-out: MIC100
[19] = tested on: Staphylococcus aureus; test: Antibacterial activity against methicillin-resistant Staphylococcus aureus clinical isolate M-18 assessed as inhibition of visible growth incubated for 16 to 18 hrs by CLSI method; format: functional; conditions: time 16-18 hrs, read-out: MIC100
[20] = tested on: Staphylococcus aureus; test: Antibacterial activity against methicillin-resistant Staphylococcus aureus clinical isolate M-19 assessed as inhibition of visible growth incubated for 16 to 18 hrs by CLSI method; format: functional; conditions: time 16-18 hrs, read-out: MIC100
[21] = tested on: Staphylococcus aureus; test: Antibacterial activity against methicillin-resistant Staphylococcus aureus clinical isolate M-20 assessed as inhibition of visible growth incubated for 16 to 18 hrs by CLSI method; format: functional; conditions: time 16-18 hrs, read-out: MIC100

| Structure (SMILES) | MIC [2] [µg/mL] | MIC [3] [µg/mL] | MIC [4] [µg/mL] | MIC [5] [µg/mL] | MIC [6] [µg/mL] | MIC [7] [µg/mL] | MIC [8] [µg/mL] | MIC [9] [µg/mL] | HC50 at 1 h [10] [µg/mL] | selectivity ratio [11] | MIC [12] [µg/mL] | MIC [13] [µg/mL] | MIC [14] [µg/mL] | MIC [15] [µg/mL] | MIC [16] [µg/mL] | MIC [17] [µg/mL] | MIC [18] [µg/mL] | MIC [19] [µg/mL] | MIC [20] [µg/mL] | MIC [21] [µg/mL] | other results |
| --- | --- | --- | --- | --- | --- | --- | --- | --- | --- | --- | --- | --- | --- | --- | --- | --- | --- | --- | --- | --- | --- |
| CC(C)(C)c1ccc(CCc2ccc(C(C)(C)C)c(O)c2)cc1O | – | – | – | – | – | – | – | – | – | – | – | – | – | – | – | – | – | – | – | – | MIC [1]: 8 µg/mL (≈ 24.5 µM) |
| C=CCc1ccc(O)c(-c2cc(CC=C)ccc2OCCC[N+](C)(C)CC(=O)NCCCCCC)c1.[Br-] | 2 | 2 | 0.5 | 0.5 | 8 | 16 | 16 | 16 | 743 | 372 | 4 | 2 | 4 | 2 | 2 | 2 | 2 | 2 | 2 | 2 | – |
| C=CCc1ccc(OCC[N+](C)(C)CC(=O)N(CCCC)CCCC)c(-c2ccc(OCC[N+](C)(C)CC(=O)N(CCCC)CCCC)c(CC=C)c2)c1.[Br-].[Br-] | 4 | 2 | 4 | 4 | 16 | 32 | 32 | 32 | > 1280 | > 320 | 4 | 4 | 4 | 4 | 2 | 2 | 2 | 8 | 8 | 8 | – |
| C=CCc1ccc(O)c(-c2cc(CC=C)ccc2OCC[N+](C)(C)CC(=O)N(CCCC)CCCC)c1.[Br-] | 2 | 4 | 1 | 2 | 8 | 16 | 16 | 16 | 786 | 393 | 4 | 4 | 4 | 4 | 4 | 2 | 2 | 2 | 2 | 2 | – |
| C=CCc1ccc(OCCC[N+](C)(C)CC(=O)NCCC)c(-c2ccc(OCCC[N+](C)(C)CC(=O)NCCC)c(CC=C)c2)c1.[Br-].[Br-] | 2 | 2 | 1 | 4 | 16 | 16 | 32 | 32 | 682 | 341 | 4 | 4 | 4 | 2 | 2 | 2 | 4 | 4 | 4 | 2 | – |
| C=CCc1ccc(O)c(-c2cc(CC=C)ccc2OCCCC[N+](C)(C)CC(=O)NCCCCCC)c1.[Br-] | 2 | 4 | 1 | 2 | 16 | 32 | 32 | 64 | 698 | 349 | 8 | 8 | 8 | 8 | 8 | 4 | 4 | 4 | 8 | 4 | – |
| C=CCc1ccc(OCC[N+](C)(C)CC(=O)NCCC)c(-c2ccc(OCC[N+](C)(C)CC(=O)NCCC)c(CC=C)c2)c1.[Br-].[Br-] | 16 | 8 | 16 | 16 | 64 | 64 | 64 | 64 | 703 | 43.9 | 8 | 8 | 8 | 8 | 4 | 4 | 4 | 8 | 8 | 8 | – |
| C=CCc1ccc(OCCCC[N+](C)(C)CC(=O)NCCCCCC)c(-c2ccc(OCCCC[N+](C)(C)CC(=O)NCCCCCC)c(CC=C)c2)c1.[Br-].[Br-] | 4 | 2 | 4 | 2 | 16 | 8 | 16 | 8 | 573 | 143 | 2 | 2 | 2 | 8 | 8 | 8 | 4 | 4 | 4 | 4 | – |
| C=CCc1ccc(OCCC[N+](C)(C)CC(=O)NCC)c(-c2ccc(OCCC[N+](C)(C)CC(=O)NCC)c(CC=C)c2)c1.[Br-].[Br-] | 2 | 4 | 4 | 4 | 16 | 32 | 64 | 32 | 1130 | 567 | 8 | 4 | 4 | 9 | 4 | 2 | 4 | 4 | 4 | 4 | – |
| C=CCc1ccc(OCC[N+](C)(C)CC(=O)NCCCC)c(-c2ccc(OCC[N+](C)(C)CC(=O)NCCCC)c(CC=C)c2)c1.[Br-].[Br-] | 4 | 8 | 2 | 4 | 64 | 32 | 64 | 32 | 832 | 208 | 4 | 4 | 4 | 4 | 8 | 8 | 8 | 4 | 4 | 8 | – |
| C=CCc1ccc(O)c(-c2cc(CC=C)ccc2OCCCC[N+](C)(C)CC(=O)N(CCCC)CCCC)c1.[Br-] | 2 | 4 | 1 | 2 | 8 | 32 | 32 | 64 | 712 | 356 | 16 | 16 | 8 | 8 | 8 | 8 | 8 | 8 | 8 | 8 | – |
| C=CCc1ccc(OCCCC[N+](C)(C)CC(=O)NCCC)c(-c2ccc(OCCCC[N+](C)(C)CC(=O)NCCC)c(CC=C)c2)c1.[Br-].[Br-] | 2 | 2 | 2 | 2 | 8 | 8 | 8 | 8 | 644 | 322 | 4 | 4 | 4 | 4 | 4 | 4 | 8 | 8 | 8 | 8 | – |
| C=CCc1ccc(OCC[N+](C)(C)CC(=O)NCC)c(-c2ccc(OCC[N+](C)(C)CC(=O)NCC)c(CC=C)c2)c1.[Br-].[Br-] | 8 | 8 | 4 | 4 | 32 | 32 | 32 | 64 | 639 | 79.9 | 8 | 8 | 8 | 4 | 4 | 4 | 4 | 4 | 4 | 4 | – |
